Source: US6355799B1, “Substituted benzene compounds, process for their preparation, and herbicidal and defoliant compositions containing them” (ISK Americas Incorporated, priority 1997, dated 2002)

Key:
Format in all cases: in vivo
[1] = system: redroot pigweed (Amaranthus retroflexus, AMARE); assay: Pre-emerge test, greenhouse herbicide activity screening; conditions: pre-emerge, phytotoxicity rating 0-100 at 14 days after application
How it was run: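 Herbicidal damage is scored 0 (none) to 100 (complete plant death) two weeks after a simulated field spray. Rates span 15–1000 g ai/ha, delivered in acetone at 187 l/ha. For post-emergence treatments, plants have 2–3 leaves and the spray carries 0.25% v/v non-ionic surfactant.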

[2] = system: barnyardgrass (Echinochloa crus-galli, ECHCG); assay: as above; conditions: pre-emerge, phytotoxicity rating 0-100 at 14 days after application
How it was run: (§1)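 Sandy loam pots; pre-emerge: sown 1 d pre-spray, surface-watered after, then bottom-watered. Post-emerge: sown 8–21 d before, 2–3 leaf stage, + 0.25% v/v NIS, bottom-watered. Acetone, 187 l/ha track spray, 15–1000 g ai/ha. 0–100 injury score, day 14.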

[3] = system: green foxtail (Setaria viridis, SETVI); assay: as above; conditions: pre-emerge, phytotoxicity rating 0-100 at 14 days after application
How it was run: as §1

[4] = system: ivyleaf morningglory (Ipomoea hederacea, IPOHE); assay: as above; conditions: pre-emerge, phytotoxicity rating 0-100 at 14 days after application
How it was run: as §1

[5] = system: johnsongrass (Sorghum halepense, SORHA); assay: as above; conditions: pre-emerge, phytotoxicity rating 0-100 at 14 days after application
How it was run: as §1

[6] = system: lambsquarters (Chenopodium album, CHEAL); assay: as above; conditions: pre-emerge, phytotoxicity rating 0-100 at 14 days after application
How it was run: as §1

[7] = system: large crabgrass (Digitaria sanguinalis, DIGSA); assay: as above; conditions: pre-emerge, phytotoxicity rating 0-100 at 14 days after application
How it was run: as §1

[8] = system: sicklepod (Cassia obtusifolia, CASOB); assay: as above; conditions: pre-emerge, phytotoxicity rating 0-100 at 14 days after application
How it was run: as §1

[9] = system: velvetleaf (Abutilon theophrasti, ABUTH); assay: as above; conditions: pre-emerge, phytotoxicity rating 0-100 at 14 days after application
How it was run: as §1

[10] = system: field corn (Zea mays L., var. Dekalb 535, CORN); assay: Pre-emerge test, crop safety; conditions: crop damage, pre-emerge, phytotoxicity rating 0-100 at 14 days after application
How it was run: (§2)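 Fourteen days after spraying, crop and weed injury was graded visually from 0, no effect, to 100, every plant dead. Test substances were dissolved in acetone and applied at 15–1000 g ai/ha with a flat-fan nozzle. Application was either pre-emergence, one day after sowing, or post-emergence at the 2–3 leaf stage.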

[11] = system: upland rice (Oryza sp., var. Tebonnet, RICE); assay: Pre-emerge test, crop safety; conditions: crop damage, pre-emerge, phytotoxicity rating 0-100 at 14 days after application
How it was run: as §2

[12] = system: barnyardgrass (Echinochloa crus-galli, ECHCG); assay: Post-emerge test, greenhouse herbicide activity screening; conditions: post-emerge, 14 days after application, rating scale 0-100
How it was run: (§3)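 Rating: 0–100 visual injury, 14 DAA. Application: acetone, 187 l/ha, 15–1000 g ai/ha, flat-fan track sprayer with nozzle 40–45 cm above soil or canopy. Post-emerge runs used 0.25% v/v surfactant on 2–3 leaf plants.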

[13] = system: green foxtail (Setaria viridis, SETVI); assay: as above; conditions: post-emerge, 14 days after application, rating scale 0-100
How it was run: as §3

[14] = system: ivyleaf morningglory (Ipomoea hederacea, IPOHE); assay: as above; conditions: post-emerge, 14 days after application, rating scale 0-100
How it was run: as §3

[15] = system: johnsongrass (Sorghum halepense, SORHA); assay: as above; conditions: post-emerge, 14 days after application, rating scale 0-100
How it was run: as §3

[16] = system: lambsquarters (Chenopodium album, CHEAL); assay: as above; conditions: post-emerge, 14 days after application, rating scale 0-100
How it was run: as §3

[17] = system: large crabgrass (Digitaria sanguinalis, DIGSA); assay: as above; conditions: post-emerge, 14 days after application, rating scale 0-100
How it was run: as §3

[18] = system: redroot pigweed (Amaranthus retroflexus, AMARE); assay: as above; conditions: post-emerge, 14 days after application
How it was run: as §3

[19] = system: sicklepod (Cassia obtusifolia, CASOB); assay: as above; conditions: post-emerge, 14 days after application, rating scale 0-100
How it was run: as §3

[20] = system: velvetleaf (Abutilon theophrasti, ABUTH); assay: as above; conditions: post-emerge, 14 days after application, rating scale 0-100
How it was run: as §3

[21] = system: field corn (Zea mays L., var. Dekalb 535, CORN); assay: Post-emerge test, crop safety; conditions: post-emerge, 14 days after application, rating scale 0-100
How it was run: as §1

[22] = system: upland rice (Oryza sp., var. Tebonnet, RICE); assay: Post-emerge test, crop safety; conditions: post-emerge, 14 days after application, rating scale 0-100
How it was run: as §1

[23] = 63 g ai/ha, rating scale 0-100 (0 no damage, 100 complete death)
[24] = 250 g ai/ha, rating scale 0-100

## Cc1ccccc1COC(=O)Nc1c(C)c(Cl)cc(F)c1-n1c(=O)cc(C(F)(F)F)n(C)c1=O [4-56]
[1]; rate 63 g ai/ha
  Pre-emerge Herbicidal Activity AMARE: 100
[1]; rate 250 g ai/ha
  Pre-emerge Herbicidal Activity AMARE: 100
[2]; rate 63 g ai/ha
  Pre-emerge Herbicidal Activity ECHCG: 50
[2]; rate 250 g ai/ha
  Pre-emerge Herbicidal Activity ECHCG: 80
[3]; rate 63 g ai/ha
  Pre-emerge Herbicidal Activity SETVI: 90
[3]; rate 250 g ai/ha
  Pre-emerge Herbicidal Activity SETVI: 95
[4]; rate 63 g ai/ha
  Pre-emerge Herbicidal Activity IPOHE: 40
[4]; rate 250 g ai/ha
  Pre-emerge Herbicidal Activity IPOHE: 100
[5]; rate 63 g ai/ha
  Pre-emerge Herbicidal Activity SORHA: 50
[5]; rate 250 g ai/ha
  Pre-emerge Herbicidal Activity SORHA: 90
[6]; rate 63 g ai/ha
  Pre-emerge Herbicidal Activity CHEAL: 100
[6]; rate 250 g ai/ha
  Pre-emerge Herbicidal Activity CHEAL: 100
[7]; rate 63 g ai/ha
  Pre-emerge Herbicidal Activity DIGSA: 50
[7]; rate 250 g ai/ha
  Pre-emerge Herbicidal Activity DIGSA: 95
[8]; rate 63 g ai/ha
  Pre-emerge Herbicidal Activity CASOB: 10
[8]; rate 250 g ai/ha
  Pre-emerge Herbicidal Activity CASOB: 100
[9]; rate 63 g ai/ha
  Pre-emerge Herbicidal Activity ABUTH: 100
[9]; rate 250 g ai/ha
  Pre-emerge Herbicidal Activity ABUTH: 100
[10]; rate 63 g ai/ha
  Pre-emerge Herbicidal Activity CORN: 35
[10]; rate 250 g ai/ha
  Pre-emerge Herbicidal Activity CORN: 80
[11]; rate 63 g ai/ha
  Pre-emerge Herbicidal Activity RICE: 50
[11]; rate 250 g ai/ha
  Pre-emerge Herbicidal Activity RICE: 90
[12]; 63 g ai/ha
  phytotoxicity rating ECHCG: 50
[12]; 250 g ai/ha
  phytotoxicity rating ECHCG: 90
[13]; 63 g ai/ha
  phytotoxicity rating SETVI: 90
[13]; 250 g ai/ha
  phytotoxicity rating SETVI: 100
[14]; 63 g ai/ha
  phytotoxicity rating IPOHE: 100
[14]; 250 g ai/ha
  phytotoxicity rating IPOHE: 100
[15]; 63 g ai/ha
  phytotoxicity rating SORHA: 40
[15]; 250 g ai/ha
  phytotoxicity rating SORHA: 90
[16]; 63 g ai/ha
  phytotoxicity rating CHEAL: 100
[16]; 250 g ai/ha
  phytotoxicity rating CHEAL: 100
[17]; 63 g ai/ha
  phytotoxicity rating DIGSA: 20
[17]; 250 g ai/ha
  phytotoxicity rating DIGSA: 70
[18]; [23]
  phytotoxicity rating AMARE: 100
[18]; [24]
  phytotoxicity rating AMARE: 100
[19]; 63 g ai/ha
  phytotoxicity rating CASOB: 100
[19]; 250 g ai/ha
  phytotoxicity rating CASOB: 100
[20]; 63 g ai/ha
  phytotoxicity rating ABUTH: 100
[20]; 250 g ai/ha
  phytotoxicity rating ABUTH: 100
[21]; 63 g ai/ha
  phytotoxicity rating CORN (crop damage): 80
[21]; 250 g ai/ha
  phytotoxicity rating CORN (crop damage): 100
[22]; 63 g ai/ha
  phytotoxicity rating RICE (crop damage): 65
[22]; 250 g ai/ha
  phytotoxicity rating RICE (crop damage): 85

## Cc1c(Cl)cc(F)c(-n2c(=O)cc(C(F)(F)F)n(C)c2=O)c1NC(=O)OCCc1ccccc1 [4-57]
[1]; rate 63 g ai/ha
  Pre-emerge Herbicidal Activity AMARE: 95
[1]; rate 250 g ai/ha
  Pre-emerge Herbicidal Activity AMARE: 100
[2]; rate 63 g ai/ha
  Pre-emerge Herbicidal Activity ECHCG: 20
[2]; rate 250 g ai/ha
  Pre-emerge Herbicidal Activity ECHCG: 75
[3]; rate 63 g ai/ha
  Pre-emerge Herbicidal Activity SETVI: 80
[3]; rate 250 g ai/ha
  Pre-emerge Herbicidal Activity SETVI: 100
[4]; rate 63 g ai/ha
  Pre-emerge Herbicidal Activity IPOHE: 50
[5]; rate 63 g ai/ha
  Pre-emerge Herbicidal Activity SORHA: 10
[5]; rate 250 g ai/ha
  Pre-emerge Herbicidal Activity SORHA: 70
[6]; rate 63 g ai/ha
  Pre-emerge Herbicidal Activity CHEAL: 100
[6]; rate 250 g ai/ha
  Pre-emerge Herbicidal Activity CHEAL: 100
[7]; rate 63 g ai/ha
  Pre-emerge Herbicidal Activity DIGSA: 60
[7]; rate 250 g ai/ha
  Pre-emerge Herbicidal Activity DIGSA: 95
[8]; rate 63 g ai/ha
  Pre-emerge Herbicidal Activity CASOB: 10
[8]; rate 250 g ai/ha
  Pre-emerge Herbicidal Activity CASOB: 100
[9]; rate 63 g ai/ha
  Pre-emerge Herbicidal Activity ABUTH: 100
[9]; rate 250 g ai/ha
  Pre-emerge Herbicidal Activity ABUTH: 100
[10]; rate 63 g ai/ha
  Pre-emerge Herbicidal Activity CORN: 0
[10]; rate 250 g ai/ha
  Pre-emerge Herbicidal Activity CORN: 45
[11]; rate 63 g ai/ha
  Pre-emerge Herbicidal Activity RICE: 20
[11]; rate 250 g ai/ha
  Pre-emerge Herbicidal Activity RICE: 70
[12]; 63 g ai/ha
  phytotoxicity rating ECHCG: 30
[12]; 250 g ai/ha
  phytotoxicity rating ECHCG: 40
[13]; 63 g ai/ha
  phytotoxicity rating SETVI: 50
[13]; 250 g ai/ha
  phytotoxicity rating SETVI: 90
[14]; 63 g ai/ha
  phytotoxicity rating IPOHE: 100
[14]; 250 g ai/ha
  phytotoxicity rating IPOHE: 100
[15]; 63 g ai/ha
  phytotoxicity rating SORHA: 30
[15]; 250 g ai/ha
  phytotoxicity rating SORHA: 50
[16]; 63 g ai/ha
  phytotoxicity rating CHEAL: 95
[16]; 250 g ai/ha
  phytotoxicity rating CHEAL: 100
[17]; 63 g ai/ha
  phytotoxicity rating DIGSA: 10
[17]; 250 g ai/ha
  phytotoxicity rating DIGSA: 60
[18]; [23]
  phytotoxicity rating AMARE: 100
[18]; [24]
  phytotoxicity rating AMARE: 100
[19]; 63 g ai/ha
  phytotoxicity rating CASOB: 60
[19]; 250 g ai/ha
  phytotoxicity rating CASOB: 100
[20]; 63 g ai/ha
  phytotoxicity rating ABUTH: 100
[20]; 250 g ai/ha
  phytotoxicity rating ABUTH: 100
[21]; 63 g ai/ha
  phytotoxicity rating CORN (crop damage): 40
[21]; 250 g ai/ha
  phytotoxicity rating CORN (crop damage): 90
[22]; 63 g ai/ha
  phytotoxicity rating RICE (crop damage): 50
[22]; 250 g ai/ha
  phytotoxicity rating RICE (crop damage): 80
